Columns and labels:
Assay type in all cases: in vivo
Chenopodium album = assay: Test Example 5: herbicidal effect by foliage application, plastic box (symbol O); details: 320 g/ha, 3 weeks after application
How it was run: (§1)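 Greenhouse foliar test: seedlings at 14 days, grown 25° C. to 30° C. in sterilized diluvial soil; compound applied as an aqueous dilution of an emulsion; response read 3 weeks after spraying.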

Avena fatua [1] = assay: Test Example 4: herbicidal effect by soil treatment (symbol I); details: application herbicide amount 320 g/ha
How it was run: (§2)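 Seeds were sown in sterilized diluvial soil, covered with about 1.5 cm of soil, and the soil surface was sprayed with a water-diluted emulsion of the compound at a predetermined rate. Plants grew in a greenhouse at 25° C. to 30° C.; effects were scored visually 3 weeks after application.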

Apera spica-venti [2] = assay: Test Example 5: herbicidal effect by foliage application, plastic box (symbol L); details: 320 g/ha, 3 weeks after application
How it was run: as §1

Digitaria ciliaris [3] = assay: Test Example 4: herbicidal effect by soil treatment (symbol F); details: application herbicide amount 320 g/ha
How it was run: as §2

Veronica persica = assay: Test Example 5: herbicidal effect by foliage application, plastic box (symbol R); details: 320 g/ha, 3 weeks after application
How it was run: as §1

rapeseed [4] = assay: Test Example 5: effect on crop by foliage application, plastic box (symbol g); details: 320 g/ha, 3 weeks after application
How it was run: (§3)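 A greenhouse held between 25° C. and 30° C. was used to grow plants sown spot-wise, beneath ~1.5 cm of soil, in boxes of sterilized diluvial soil.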

[5] = tested on: directly sowed rice plant; assay: Test Example 3: effect on crop by foliage application, Wagner pot (symbol b); details: application herbicide amount 320 g/ha
How it was run: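 Alluvial soil in a 1/10000-are Wagner pot was flooded to a water depth of 0.1–0.5 cm. Echinochloa crus-galli var. crus-galli, Leptochloa chinensis, Cyperus difformis and rice were sown into it and grown in a greenhouse at 25–30 °C.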

Lolium multiflorum Lam. [6] = assay: Test Example 5: herbicidal effect by foliage application, plastic box (symbol K); details: 320 g/ha, 3 weeks after application
How it was run: as §1

rapeseed [7] = assay: Test Example 4: effect on crop by soil treatment (symbol g); details: application herbicide amount 320 g/ha
How it was run: (§4)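 Soil-treatment setup: crop and weed seeds were spot-sown into sterilized diluvial soil, then buried beneath approximately 1.5 cm of it, and the boxes were housed in a 25–30° C. greenhouse.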

wheat = assay: Test Example 5: effect on crop by foliage application, plastic box (symbol e); details: 320 g/ha, 3 weeks after application
How it was run: as §3

[8] = tested on: Echinochloa crus-galli var. crus-galli; assay: Test Example 4: herbicidal effect by soil treatment (symbol H); details: application herbicide amount 320 g/ha
How it was run: as §2

Monochoria vaginalis = assay: Test Example 2: herbicidal activity, application during weed generation in submerged conditions (symbol C); details: Table 23; application herbicide amount 320 g/ha; grade 0-5 by criteria of Test Example 1
How it was run: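 Each pot contained alluvial soil under 4 cm of water with seeds of all three weeds sown together. Following growth at 25° C. to 30° C. to the one- to two-leaf stage, the floodwater received diluted emulsion at a predetermined amount; visual assessment followed at 3 weeks.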

Apera spica-venti [9] = assay: Test Example 4: herbicidal effect by soil treatment (symbol L); details: application herbicide amount 320 g/ha
How it was run: as §2

Abutilon theophrasti = assay: Test Example 5: herbicidal effect by foliage application, plastic box (symbol M); details: 320 g/ha, 3 weeks after application
How it was run: as §1

Avena fatua [10] = assay: Test Example 5: herbicidal effect by foliage application, plastic box (symbol I); details: 320 g/ha, 3 weeks after application
How it was run: as §1

rice = assay: Test Example 4: effect on crop by soil treatment (symbol b); details: application herbicide amount 320 g/ha
How it was run: as §4

Digitaria ciliaris [11] = assay: Test Example 5: herbicidal effect by foliage application, plastic box (symbol F); details: 320 g/ha, 3 weeks after application
How it was run: as §1

Alopecurus myosuroides = assay: Test Example 4: herbicidal effect by soil treatment (symbol J); details: application herbicide amount 320 g/ha
How it was run: as §2

Stellaria media = assay: Test Example 5: herbicidal effect by foliage application, plastic box (symbol P); details: 320 g/ha, 3 weeks after application
How it was run: as §1

Galium spurium = assay: Test Example 5: herbicidal effect by foliage application, plastic box (symbol Q); details: 320 g/ha, 3 weeks after application
How it was run: as §1

Amaranthus retroflexus = assay: Test Example 5: herbicidal effect by foliage application, plastic box (symbol N); details: 320 g/ha, 3 weeks after application
How it was run: as §1

Lolium multiflorum Lam. [12] = assay: Test Example 4: herbicidal effect by soil treatment (symbol K); details: application herbicide amount 320 g/ha
How it was run: as §2

beet = assay: Test Example 4: effect on crop by soil treatment (symbol f); details: application herbicide amount 320 g/ha
How it was run: as §4

| SMILES | effect on crop b (directly sowed rice plant), grade 0-5 [5] | Herbicidal effect grade, C: Monochoria vaginalis (Monochoria vaginalis) | O: Chenopodium album, herbicidal effect (criteria of Test Example 1) (Chenopodium album) | Herbicidal effect grade, I: Avena fatua (Avena fatua [1]) | L: Apera spica-venti, herbicidal effect (criteria of Test Example 1) (Apera spica-venti [2]) | Herbicidal effect grade, F: Digitaria ciliaris (Digitaria ciliaris [3]) | R: Veronica persica, herbicidal effect (criteria of Test Example 1) (Veronica persica) | g: rapeseed, effect on crop (criteria of Test Example 1) (rapeseed [4]) | K: Lolium multiflorum Lam., herbicidal effect (criteria of Test Example 1) (Lolium multiflorum Lam. [6]) | Effect on crop grade, g: rapeseed (rapeseed [7]) | e: wheat, effect on crop (criteria of Test Example 1) (wheat) | Herbicidal effect grade, H: Echinochloa crus-galli var. crus-galli [8] | M: Abutilon theophrasti, herbicidal effect (criteria of Test Example 1) (Abutilon theophrasti) | I: Avena fatua, herbicidal effect (criteria of Test Example 1) (Avena fatua [10]) | Effect on crop grade, b: directly sowed rice plant (rice) | F: Digitaria ciliaris, herbicidal effect (criteria of Test Example 1) (Digitaria ciliaris [11]) | Herbicidal effect grade, J: Alopecurus myosuroides (Alopecurus myosuroides) | P: Stellaria media, herbicidal effect (criteria of Test Example 1) (Stellaria media) | Q: Galium spurium, herbicidal effect (criteria of Test Example 1) (Galium spurium) | Effect on crop grade, f: beet (beet) | also measured |
| --- | --- | --- | --- | --- | --- | --- | --- | --- | --- | --- | --- | --- | --- | --- | --- | --- | --- | --- | --- | --- | --- |
| CON=C(C)CC1CC(OC(=O)C2CC2)=C(c2c(C)cc(C)cc2C)C1=O (stereo not drawn) [1-015] | 5 (Herbicidal ratio of 90% or more (almost completely withered)) | 4 (Herbicidal ratio of 70% or higher and lower than 90%) |  |  |  |  |  |  |  |  |  |  |  |  |  |  |  |  |  |  | O: Chenopodium album, herbicidal effect grade (Chenopodium album): 3 (Herbicidal ratio of 40% or higher and lower than 70%); I (Avena fatua) herbicidal effect grade (Avena fatua [1]): 5 (Herbicidal ratio of 90% or more (almost completely withered)); L: Apera spica-venti, herbicidal effect grade (Apera spica-venti [2]): 5 (Herbicidal ratio of 90% or more (almost completely withered)); F (Digitaria ciliaris) herbicidal effect grade (Digitaria ciliaris [3]): 5 (Herbicidal ratio of 90% or more (almost completely withered)); R: Veronica persica, herbicidal effect grade (Veronica persica): 4 (Herbicidal ratio of 70% or higher and lower than 90%); g: rapeseed, effect on crop grade (rapeseed [4]): 4 (Herbicidal ratio of 70% or higher and lower than 90%); K: Lolium multiflorum Lam., herbicidal effect grade (Lolium multiflorum Lam. [6]): 5 (Herbicidal ratio of 90% or more (almost completely withered)); g (rapeseed) effect on crop grade (rapeseed [7]): 4 (Herbicidal ratio of 70% or higher and lower than 90%); e: wheat, effect on crop grade (wheat): 5 (Herbicidal ratio of 90% or more (almost completely withered)); H (Echinochloa crus-galli var. crus-galli) herbicidal effect grade [8]: 5 (Herbicidal ratio of 90% or more (almost completely withered)); L (Apera spica-venti) herbicidal effect grade (Apera spica-venti [9]): 5 (Herbicidal ratio of 90% or more (almost completely withered)); M: Abutilon theophrasti, herbicidal effect grade (Abutilon theophrasti): 4 (Herbicidal ratio of 70% or higher and lower than 90%); I: Avena fatua, herbicidal effect grade (Avena fatua [10]): 5 (Herbicidal ratio of 90% or more (almost completely withered)); b (directly sowed rice plant) effect on crop grade (rice): 5 (Herbicidal ratio of 90% or more (almost completely withered)); F: Digitaria ciliaris, herbicidal effect grade (Digitaria ciliaris [11]): 5 (Herbicidal ratio of 90% or more (almost completely withered)); J (Alopecurus myosuroides) herbicidal effect grade (Alopecurus myosuroides): 5 (Herbicidal ratio of 90% or more (almost completely withered)); P: Stellaria media, herbicidal effect grade (Stellaria media): 4 (Herbicidal ratio of 70% or higher and lower than 90%); Q: Galium spurium, herbicidal effect grade (Galium spurium): 4 (Herbicidal ratio of 70% or higher and lower than 90%); N: Amaranthus retroflexus, herbicidal effect grade (Amaranthus retroflexus): 4 (Herbicidal ratio of 70% or higher and lower than 90%); K (Lolium multiflorum Lam.) herbicidal effect grade (Lolium multiflorum Lam. [12]): 5 (Herbicidal ratio of 90% or more (almost completely withered)) |
| CON=C(C)CC1CC(O)=C(c2c(F)cc(-c3ccccc3)cc2OC)C1=O (stereo not drawn) [6-107] | 5 (Herbicidal ratio of 90% or more (almost completely withered)) | 5 (Herbicidal ratio of 90% or more (almost completely withered)) | 4 (Herbicidal ratio of 70% or higher and lower than 90%) | 3 (Herbicidal ratio of 40% or higher and lower than 70%) | 5 (Herbicidal ratio of 90% or more (almost completely withered)) | 5 (Herbicidal ratio of 90% or more (almost completely withered)) | 4 (Herbicidal ratio of 70% or higher and lower than 90%) | 4 (Herbicidal ratio of 70% or higher and lower than 90%) | 5 (Herbicidal ratio of 90% or more (almost completely withered)) | 4 (Herbicidal ratio of 70% or higher and lower than 90%) | 5 (Herbicidal ratio of 90% or more (almost completely withered)) | 5 (Herbicidal ratio of 90% or more (almost completely withered)) | 3 (Herbicidal ratio of 40% or higher and lower than 70%) | 5 (Herbicidal ratio of 90% or more (almost completely withered)) | 5 (Herbicidal ratio of 90% or more (almost completely withered)) | 5 (Herbicidal ratio of 90% or more (almost completely withered)) | 5 (Herbicidal ratio of 90% or more (almost completely withered)) | 2 (Herbicidal ratio of 20% or higher and lower than 40%) | 5 (Herbicidal ratio of 90% or more (almost completely withered)) | 1 (Herbicidal ratio of 5% or higher and lower than 20%) | N: Amaranthus retroflexus, herbicidal effect (criteria of Test Example 1) (Amaranthus retroflexus): 2 (Herbicidal ratio of 20% or higher and lower than 40%); Herbicidal effect grade, K: Lolium multiflorum Lam. (Lolium multiflorum Lam. [12]): 1 (Herbicidal ratio of 5% or higher and lower than 20%) |
| CON=C(C)CC1CC(OS(=O)(=O)N(C)C)=C(c2c(C)cc(C)cc2OC)C1=O (stereo not drawn) [6-095] | 5 (Herbicidal ratio of 90% or more (almost completely withered)) | 2 (Herbicidal ratio of 20% or higher and lower than 40%) | 5 (Herbicidal ratio of 90% or more (almost completely withered)) | 3 (Herbicidal ratio of 40% or higher and lower than 70%) | 5 (Herbicidal ratio of 90% or more (almost completely withered)) | 5 (Herbicidal ratio of 90% or more (almost completely withered)) | 3 (Herbicidal ratio of 40% or higher and lower than 70%) | 4 (Herbicidal ratio of 70% or higher and lower than 90%) | 5 (Herbicidal ratio of 90% or more (almost completely withered)) | 4 (Herbicidal ratio of 70% or higher and lower than 90%) | 4 (Herbicidal ratio of 70% or higher and lower than 90%) | 5 (Herbicidal ratio of 90% or more (almost completely withered)) | 4 (Herbicidal ratio of 70% or higher and lower than 90%) | 5 (Herbicidal ratio of 90% or more (almost completely withered)) | 5 (Herbicidal ratio of 90% or more (almost completely withered)) | 5 (Herbicidal ratio of 90% or more (almost completely withered)) | 5 (Herbicidal ratio of 90% or more (almost completely withered)) | 1 (Herbicidal ratio of 5% or higher and lower than 20%) | 0 (Herbicidal ratio of 5% or lower (almost no effect)) | 0 (Herbicidal ratio of 5% or lower (almost no effect)) | N: Amaranthus retroflexus, herbicidal effect (criteria of Test Example 1) (Amaranthus retroflexus): 0 (Herbicidal ratio of 5% or lower (almost no effect)); Herbicidal effect grade, K: Lolium multiflorum Lam. (Lolium multiflorum Lam. [12]): 5 (Herbicidal ratio of 90% or more (almost completely withered)) |
